Patent US20250388574A1, “HETEROCYCLIC COMPOUNDS AS TRIGGERING RECEPTOR EXPRESSED ON MYELOID CELLS 2 AGONISTS AND METHODS OF USE” (AMGEN INC., priority 2020, published 2025)
Read-outs that look alike come from different tables or passages of the source.

Molecular target: hTREM2 (Homo sapiens, UniProt Q9NZC2)
Experiment: Phospho-Syk AlphaScreen/AlphaLISA assay in TREM2 and DAP12 overexpressing HEK293 cells (Example A1)
Type: cell-based
Parameters: expressed in transfected cells
In short: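 Single-cell-cloned HEK293 stably overexpressing TREM2 and DAP12, plated 20,000 cells/well for 20 h, then exposed to compounds (1% DMSO) 45 min at room temperature. Lysates probed for phospho-Syk by AlphaLISA sandwich (anti-pSyk, biotinylated anti-Syk); signal normalized to percent of control (100 nM anti-TREM2 antibody vs isotype) and fitted by 4-parameter logistic.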

[1] = HEK293 cells, read-out: hTREM2 EC50

hTREM2, sequence (Q9NZC2 19-230): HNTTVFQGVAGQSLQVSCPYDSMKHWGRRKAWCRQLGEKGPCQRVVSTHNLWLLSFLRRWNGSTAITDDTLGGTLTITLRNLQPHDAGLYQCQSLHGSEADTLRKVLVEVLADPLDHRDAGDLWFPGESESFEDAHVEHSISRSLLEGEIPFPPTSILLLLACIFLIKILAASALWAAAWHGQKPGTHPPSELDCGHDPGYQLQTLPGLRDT
hTREM2, sequence (O43914 22-113 partner): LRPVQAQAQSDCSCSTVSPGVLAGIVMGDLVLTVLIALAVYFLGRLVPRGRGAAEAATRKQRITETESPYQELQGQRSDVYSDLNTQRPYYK

| Compound | Emax (HEK293 cells) | EC50 [1] [nM] | EC50 (hTREM2 EC50, HEK293 cells) [nM] |
| --- | --- | --- | --- |
| Cc1nc2cc(N3CCO[C@@H](c4cnn(C(F)CF)c4)C3)nc(-c3ccc(Cl)cc3F)c2c(=O)n1C (stereo partly drawn) [Example 135, 5-(4-chloro-2-fluorophenyl)-7-((2S)-2-(1-(1,2-difluoroethyl)-1H-pyrazol-4-yl)-4-morpholinyl)-2,3-dimethylpyrido[4,3-d]pyrimidin-4(3H)-one] | – | – | 50 to 500 |
| Cc1nc2cc([C@H]3CCO[C@@H](c4cccnc4)C3)nc(-c3ccc(Cl)cc3F)c2c(=O)n1C (single isomer, unassigned) [Example 177] | ++++ (Emax>300) | 50 to 500 | – |
| CCc1nnc(C2CN(c3cc4nc(C)n(C)c(=O)c4c(-c4ccc(Cl)cc4F)n3)CCO2)o1 (centres unmarked) [Example 70, 5-(4-chloro-2-fluorophenyl)-7-(2-(5-ethyl-1,3,4-oxadiazol-2-yl)-4-morpholinyl)-2,3-dimethylpyrido[4,3-d]pyrimidin-4(3H)-one] | ++++ (Emax>300) | 50 to 500 | – |
| Cc1nc2cc(N3CCO[C@@H](c4cnn(C)c4)C3)nc(-c3ccc(Cl)cc3F)c2c(=O)n1C1CC1 [Example 20, 5-(4-chloro-2-fluorophenyl)-3-cyclopropyl-2-methyl-7-((2S)-2-(1-methyl-1H-pyrazol-4-yl)-4-morpholinyl)pyrido[4,3-d]pyrimidin-4(3H)-one] | ++++ (Emax>300) | 50 to 500 | – |
| Cc1nc2cc(N3CCO[C@@H](c4noc(C5CC5)n4)C3)nc(-c3ccc(Cl)cc3F)c2c(=O)n1C (single isomer, unassigned) [Example 84] | ++++ (Emax>300) | 500 to 3000 | – |
| ethyl (2R,4S)-4-(5-(4-chloro-2-fluorophenyl)-2,3-dimethyl-4-oxo-3,4-dihydropyrido[4,3-d]pyrimidin-7-yl)tetrahydro-2H-pyran-2-carboxylate and ethyl (2S,4R)-4-(5-(4-chloro-2-fluorophenyl)-2,3-dimethyl-4-oxo-3,4-dihydropyrido[4,3-d]pyrimidin-7-yl)tetrahydro-2H-pyran-2-carboxylate [Example 167] | ++++ (Emax>300) | 50 to 500 | – |
| Cc1nc2cc(N3CCOC(C)(c4cnn(C)c4)C3)nc(-c3ccc(Cl)cc3F)c2c(=O)n1C (centres unmarked) [Example 31, 5-(4-chloro-2-fluorophenyl)-2,3-dimethyl-7-(2-methyl-2-(1-methyl-1H-pyrazol-4-yl)-4-morpholinyl)pyrido[4,3-d]pyrimidin-4(3H)-one] | ++++ (Emax>300) | 3000 to 100000 | – |
| Cc1nc2cc(N3CCC[C@@H](c4ccncc4)C3)nc(-c3ccc(Cl)cc3F)c2c(=O)n1C (single isomer, unassigned) [Example 113] | ++++ (Emax>300) | 50 to 500 | – |
| Cc1nc2cc(N3CCO[C@@H](c4cnn(C)c4)C3)nc(-c3ccc(Cl)cc3F)c2c(=O)[nH]1 [Example 145, 5-(4-chloro-2-fluorophenyl)-2-methyl-7-((2S)-2-(1-methyl-1H-pyrazol-4-yl)-4-morpholinyl)pyrido[4,3-d]pyrimidin-4(3H)-one] | ++ (Emax>100 and ≤200) | 500 to 3000 | – |
| Cc1nc2cc(N3C[C@H](C)O[C@@H](C4CC4)C3)nc(-c3ccc(Cl)cc3F)c2c(=O)n1C (single isomer, unassigned) [Example 35] | +++ (Emax>200 and ≤300) | 500 to 3000 | – |
| Cc1nc2cc(N3CCO[C@H](c4cnn(C)c4)C3)cc(-c3ccc(Cl)cc3F)c2c(=O)n1C [Example 4, 5-(4-chloro-2-fluorophenyl)-2,3-dimethyl-7-((2R)-2-(1-methyl-1H-pyrazol-4-yl)-4-morpholinyl)-4(3H)-quinazolinone] | +++ (Emax>200 and ≤300) | 500 to 3000 | – |
| COc1cccc([C@@H]2CN(c3cc4nc(C)n(C)c(=O)c4c(-c4ccc(Cl)cc4F)n3)CCO2)c1 (single isomer, unassigned) [Example 81] | +++ (Emax>200 and ≤300) | 3000 to 100000 | – |
| Cc1nc2cc(N3C[C@@H](c4cnn(C)c4)O[C@@H](C)C3)nc(-c3ccc(Cl)cc3F)c2c(=O)n1C (single isomer, unassigned) [Example 29] | +++ (Emax>200 and ≤300) | 500 to 3000 | – |
| CCn1cc([C@@H]2CN(c3cc4nc(C)n(C)c(=O)c4c(-c4ccc(Cl)cc4F)n3)CCO2)cn1 (single isomer, unassigned) [Example 24] | ++++ (Emax>300) | 50 to 500 | – |
| COc1cc([C@@H]2C[C@@H](c3cc4nc(C)n(C)c(=O)c4c(-c4ccc(Cl)cc4F)n3)CCO2)ccn1 (single isomer, unassigned) [Example 175] | +++ (Emax>200 and ≤300) | 50 to 500 | – |
| CCn1c(C)nc2cc(N3CCO[C@H](c4noc(C)n4)C3)nc(-c3ccc(Cl)cc3F)c2c1=O [Example 147, 5-(4-chloro-2-fluorophenyl)-3-ethyl-2-methyl-7-((2S)-2-(5-methyl-1,2,4-oxadiazol-3-yl)-4-morpholinyl)pyrido[4,3-d]pyrimidin-4(3H)-one] | ++++ (Emax>300) | 50 to 500 | – |
| Cc1nc2cc(N3CCC[C@H](c4cnn(C)c4)C3)nc(-c3ccc(Cl)cc3F)c2c(=O)n1C (single isomer, unassigned) [Example 100] | +++ (Emax>200 and ≤300) | 50 to 500 | – |

More lines, main results first:

| Emax (HEK293 cells) | EC50 [1] [nM] | Compound | EC50 (hTREM2 EC50, HEK293 cells) [nM] |
| --- | --- | --- | --- |
| ++ (Emax>100 and ≤200) | < 50 | Cc1nc2cc([C@@H]3CCO[C@H](c4cnn(C)c4)C3)nc(-c3ccc(Cl)cc3F)c2c(=O)n1C [Example 275, 5-(4-chloro-2-fluorophenyl)-2,3-dimethyl-7-((2S,4R)-2-(1-methyl-1H-pyrazol-4-yl)tetrahydro-2H-pyran-4-yl)pyrido[4,3-d]pyrimidin-4(3H)-one] | – |
| +++ (Emax>200 and ≤300) | 500 to 3000 | Cc1nc2cc(N3CCO[C@H](c4ccccn4)C3)nc(-c3ccc(Cl)cc3F)c2c(=O)n1C [Example 209, (S)-5-(4-chloro-2-fluorophenyl)-2,3-dimethyl-7-(2-(pyridin-2-yl)morpholino)pyrido[4,3-d]pyrimidin-4(3H)-one] | – |
| +++ (Emax>200 and ≤300) | 50 to 500 | Cc1nn(C)cc1[C@H]1CN(c2cc3nc(C)n(C)c(=O)c3c(-c3ccc(Cl)cc3F)n2)CCO1 [Example 263, (S)-5-(4-chloro-2-fluorophenyl)-7-(2-(1,3-dimethyl-1H-pyrazol-4-yl)morpholino)-2,3-dimethylpyrido[4,3-d]pyrimidin-4(3H)-one] | – |
| +++ (Emax>200 and ≤300) | 3000 to 100000 | Cc1nc2cc(N3CCC[C@@H](N4CCC4)C3)nc(-c3ccc(Cl)cc3F)c2c(=O)n1C [Example 246, (R)-7-(3-(azetidin-1-yl)piperidin-1-yl)-5-(4-chloro-2-fluorophenyl)-2,3-dimethylpyrido[4,3-d]pyrimidin-4(3H)-one] | – |
| ++++ (Emax>300) | 50 to 500 | Cc1nc2cc(N3CCO[C@H](c4noc(C5CC5)n4)C3)nc(-c3ccc(Cl)cc3F)c2c(=O)n1C [Example 201, (S)-5-(4-chloro-2-fluorophenyl)-7-(2-(5-cyclopropyl-1,2,4-oxadiazol-3-yl)morpholino)-2,3-dimethylpyrido[4,3-d]pyrimidin-4(3H)-one] | – |
| ++++ (Emax>300) | 50 to 500 | CCCn1c(C)nc2cc(N3CCO[C@H](c4ccnn4C)C3)nc(-c3ccc(Cl)cc3F)c2c1=O [Example 184, (S)-5-(4-chloro-2-fluorophenyl)-2-methyl-7-(2-(1-methyl-1H-pyrazol-5-yl)morpholino)-3-propylpyrido[4,3-d]pyrimidin-4(3H)-one] | – |
| ++++ (Emax>300) | 500 to 3000 | Cc1nc2cc(N3CCO[C@H](c4cnn(C)c4)C3)nc(-c3ncc(Cl)cc3F)c2c(=O)n1C [Example 196, (R)-5-(5-chloro-3-fluoropyridin-2-yl)-2,3-dimethyl-7-(2-(1-methyl-1H-pyrazol-4-yl)morpholino)pyrido[4,3-d]pyrimidin-4(3H)-one] | – |
| +++ (Emax>200 and ≤300) | 3000 to 100000 | Cc1nc2cc(N3CCC[C@H](N4CCCC4)C3)nc(-c3ccc(Cl)cc3F)c2c(=O)n1C [Example 242, (S)-5-(4-chloro-2-fluorophenyl)-2,3-dimethyl-7-(3-(pyrrolidin-1-yl)piperidin-1-yl)pyrido[4,3-d]pyrimidin-4(3H)-one] | – |
| ++++ (Emax>300) | 500 to 3000 | Cc1nc2cc(N3CCO[C@H](c4nccs4)C3)nc(-c3ccc(Cl)cc3F)c2c(=O)n1C [Example 198, (S)-5-(4-chloro-2-fluorophenyl)-2,3-dimethyl-7-(2-(thiazol-2-yl)morpholino)pyrido[4,3-d]pyrimidin-4(3H)-one] | – |
| +++ (Emax>200 and ≤300) | 3000 to 100000 | Cc1nc2cc(N3CC[C@H](N(C)C)C3)nc(-c3ccc(Cl)cc3F)c2c(=O)n1C [Example 255, (S)-5-(4-chloro-2-fluorophenyl)-7-(3-(dimethylamino)pyrrolidin-1-yl)-2,3-dimethylpyrido[4,3-d]pyrimidin-4(3H)-one] | – |
| +++ (Emax>200 and ≤300) | 3000 to 100000 | Cc1nc2cc(N3CC[C@H](c4ccccn4)C3)nc(-c3ccc(Cl)cc3F)c2c(=O)n1C [Example 205, (S)-5-(4-chloro-2-fluorophenyl)-2,3-dimethyl-7-(3-(pyridin-2-yl)pyrrolidin-1-yl)pyrido[4,3-d]pyrimidin-4(3H)-one] | – |
| ++ (Emax>100 and ≤200) | 50 to 500 | COc1ccc([C@@H]2CN(c3cc4nc(C)n(C)c(=O)c4c(-c4ccc(Cl)cc4F)n3)CCO2)cc1 [Example 237, (R)-5-(4-chloro-2-fluorophenyl)-7-(2-(4-methoxyphenyl)morpholino)-2,3-dimethylpyrido[4,3-d]pyrimidin-4(3H)-one] | – |
| ++++ (Emax>300) | 500 to 3000 | CCCn1c(C)nc2cc(N3CCO[C@@H](CF)C3)nc(-c3ccc(Cl)cc3F)c2c1=O [Example 192, (R)-5-(4-chloro-2-fluorophenyl)-7-(2-(fluoromethyl)morpholino)-2-methyl-3-propylpyrido[4,3-d]pyrimidin-4(3H)-one] | – |
